According to article PMC9870890 (Nature Communications, 2023):
Where “and” joins values, the source holds several entries; their conditions need not be identical. Equal entries are not always repeated.

Biological target: T1, M2RFL△9M_K383M (Homo sapiens, UniProt P08172, K383M/M139L/M142L/M143L/M1T/M248L/M296L/M368L/M456T/M45L)
T1 construct: we used the full-length M2R (M2RFL) with mutations at the three native methionines in ICL3; FLAG; His; made in house; host or cells: Sf9 membranes
T1 sequence (P08172 1-466 M1T/M45L/M139L/M142L/M143L/M248L/M296L/M368L/K383M/M456T): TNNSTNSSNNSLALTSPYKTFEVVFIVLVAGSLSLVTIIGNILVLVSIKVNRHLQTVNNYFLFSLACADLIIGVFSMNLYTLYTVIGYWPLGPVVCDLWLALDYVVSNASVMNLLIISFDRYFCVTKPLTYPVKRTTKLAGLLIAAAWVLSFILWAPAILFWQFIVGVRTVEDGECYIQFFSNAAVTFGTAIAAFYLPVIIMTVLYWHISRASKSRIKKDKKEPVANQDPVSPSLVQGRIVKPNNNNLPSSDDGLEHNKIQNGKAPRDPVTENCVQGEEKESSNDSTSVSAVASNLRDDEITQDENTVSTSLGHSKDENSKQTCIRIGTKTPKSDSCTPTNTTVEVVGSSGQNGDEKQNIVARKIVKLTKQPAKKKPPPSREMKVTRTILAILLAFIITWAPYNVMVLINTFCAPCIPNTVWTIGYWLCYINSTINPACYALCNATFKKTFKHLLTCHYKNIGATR
Experiment: [3H]-NMS competition binding (ACh competition, GoA titration), engineered construct
Parameters: unit not given here
Description: Purified M2R receptor was reconstituted into high-density lipoprotein (HDL) particles constituting apolipoprotein A1(APOA1) and mixture of POPG: POPC lipids with 3:2 (mol:mol)ratio as previously described. […] Membranes or HDL particles were separated from excess [^3H]-NMS by Whatman GF/B filters using a Brandel 48-well harvester. The bound radioligand were read on a liquid scintillation counter (MicroBeta Jet, PerkinElmer). Data were analyzed by GraphPad Prism 9.2.0. […]
Data are given as mean
± SEM from 3 independent experiments.
M2RFL△9M_K383M and M2RFL_WT.
SEM from 3 independent experiments. […]

CC(=O)OCC[N+](C)(C)C [ACh, acetylcholine]
ACh competition curve data, Supplementary Fig. 4c (log[M] (ACh) -3): 3.636 and 3.347 and 4.163 | ACh competition curve data, Supplementary Fig. 4c (log[M] (ACh) -4): 19.7375 and 21.0617 and 22.4385 | ACh competition curve data, Supplementary Fig. 4c (log[M] (ACh) -5): 66.4796 and 63.8048 and 73.8724 | ACh competition curve data, Supplementary Fig. 4c (log[M] (ACh) -6): 76.3279 and 99.6814 and 101.207 | ACh competition curve data, Supplementary Fig. 4c (log[M] (ACh) -7): 102.154 and 99.3043 and 98.5413 | ACh competition curve data, Supplementary Fig. 4c (log[M] (ACh) -8): 82.4578 and 100.655 and 103.084
